Results published in patent publication US6150414A, “Compositions and methods for treating viral infections” (priority 1992, dated 2000).
“And” between values parts separate entries of the source, which are not always exact repeats. Equal values may be shown once. Read-outs that look alike come from different tables or passages of the source.

Assays:
Friend Leukemia Virus [1] = assay: Inhibition of Friend Leukemia Virus-induced splenomegaly in mice, compounds intraperitoneally 24 hours after virus (Example 1(a)); assay type: in vivo, BALB/c mice; set-up: Actual Spleen Weight / Average Spleen Weight: unit not given here; conditions: for Actual Spleen Weight: single animal; for inhibition of FV-induced splenomegaly / anti-retroviral activity: Example 1(a); for inhibition in vivo at 0.1 mg / inhibition in vivo at 0.05 mg / inhibition in vivo at 0.2 mg: Mus musculus, ip; for Pooled Average % Inhibition: pooled over 50, 100, 200, 2 × 100 micrograms
Source text: The effects of compositions according to the present invention on infection of mammals with Friend Leukemia Virus (FV) were examined.
Friend Leukemia Virus is an aggressive retrovirus which induces an acute erythroleukemia in sensitive strains of mice such as BALB/c and NIH swiss mice as described in Friend, C. J., Exp. Med. 105: 307-324, 1957; Friend, C. et al. Proc. Natl. Acad. Sci. USA 68: 378-383, 1971; Friend, C. et al. Natl. Cancer Inst. Mongr. 22: 508-552, 1966. The malignant transformation is the result of the combined activities of the Spleen Focus Forming Virus (SFFV) and the ecotropic Murine Friend Leukemia Helper Virus (F-MuLV). The acute erythroleukemia is characterized by hepatosplenomegaly (a marked increase in the size of the spleen and liver) and a severe anemia.
Friend Leukemia Virus was prepared by homogenizing the enlarged spleen of a mouse previously infected with FV, 10 days after intravenous virus injection. The spleen was homogenized in phosphate buffered saline in a volume equal to ten times the weight of the isolated spleen.
(§1) The effects of compositions according to the present invention on the increase in spleen size (splenomegaly) of BALB/c mice (Jackson Labs, Bar Harbor, ME) was examined. In these experiments, the virus (10^6 focus forming units--FFU) was inoculated intravenously and 100 micrograms of the compounds indicated in Table II were administered to the mice intraperitoneally 24 hours later. Each compound was administered once to two mice. The animals were sacrificed ten days later and their spleens weighed.
The present assay has been developed from similar assays using hypericin or pseudohypericin and employing higher numbers of experimental animals per group (e.g. 4 animals). It was discovered however that the specificity and sensitivity of this assay are such that an experimental group of two animals is of more than adequate predictive value.
(§2) As used in Table II (and subsequent Tables of this Example l(a) and (b), "average percent inhibition" is calculated as follows: [formula] wherein "ASWNC" designates "average spleen weight of negative control"; "ASWE" designates "average spleen weight of experimental (treated) subject"; and "ASWPC" designates "average spleen weight of positive control". Average spleen weight is the numerical average of spleen weights of each experimental group (in Table II each such group includes two members).
In these experiments, the virus (10^6 focus forming units--FFU) was inoculated intravenously, and the indicated doses of the antiviral compounds of this invention were administered to the BALB/c mice intraperitoneally 24 hours later. The animals were then sacrificed ten days later and their spleens weighed.
Pseudohypericin was diluted in phosphate buffered saline with 1% ethanol.
An expanded series of experiments was next performed in which various concentrations (i.e. 50, 100, 200 and 2×100, i.e., 100 micrograms administered twice) of a different set of PAC compounds (numbers 16-29 and 30-36 in Table III below) were administered intraperitoneally each according to the same protocol described above. Compounds 16-29 all had 3-5 fused, aromatic rings and no side groups except for oxygen or hydroxyl groups, whereas compounds 30-36 all had 3 fused aromatic rings and side chains selected from the group of oxygen, hydroxyl and methyl.
When 2 doses of the compounds were given, the second dose was administered 24-48 hours after the first injection. The animals were infected and splenomegaly determined as above for the compounds in Table II. In Table III, "pooled average percent inhibition" is calculated by adding the average percent inhibition for each experiment with the same compound and dividing the sum by the number of experiments (i.e. the number 4). […]

Friend Leukemia Virus [2] = assay: FV-induced splenomegaly, PAC compounds in combination with AZT (Example 1(b)); assay type: in vivo, BALB/c mice; set-up: Spleen weight / Average Spleen Weight: unit not given here; conditions: for Spleen weight: single animal
Description: as §1, §2
The compounds of the present invention (100 micrograms per mouse) were also tested in combination with AZT (20 micrograms per mouse, twice a day) using otherwise the same methods as in Example 1(a) above. As representatives, compound #9 above (3-bromophenanthro (3,4-C), phenanthrene) and compound #10 (diindeno (1, 2, 3-CD/1', 2', 3'-IM) Perylene) were chosen. […] The compounds were administered i.p. either once or five times (once per day) alone or together with AZT (20 micrograms of AZT per mouse twice a day for five days?). Thus, in experiments where AZT was administered five times, a total of […] of AZT was received by each mouse (with a total of 500 micrograms of the PAC compound).

[3] = 100 micrograms i.p. once, 24 h after FV, Table II
[4] = 1X, 100 micrograms per mouse i.p.
[5] = 5X, 100 micrograms per mouse i.p. once per day
[6] = dose 2 × 100 (micrograms) i.p., Table III
[7] = dose 50 (micrograms) i.p., Table III
[8] = dose 100 (micrograms) i.p., Table III
[9] = dose 200 (micrograms) i.p., Table III

For `c1ccc2c(c1)-c1ccc3c4ccc5c6c(ccc(c7ccc-2c1c37)c64)-c1ccccc1-5` [Compound 10, Diindeno(1,2,3-CD/1',2',3'-IM)Perylene], the “Average % Inhibition” value (Friend Leukemia Virus [1]; [3]) was 44.3%, the “Average Spleen Weight” value (Friend Leukemia Virus [1]; [3]) was 0.4767 and the “Average % Inhibition” value (Friend Leukemia Virus [1]; 100 micrograms i.p. once, 24 h after FV, Table II, listed as #10) was over 40%. The “Actual Spleen Weight” value (Friend Leukemia Virus [1]; [3]) was 0.4809 and 0.4724, the “% Inhibition” value (Friend Leukemia Virus [2]; [4]) was 22% and the Average Spleen Weight (Friend Leukemia Virus [2]; [4]) was 1.724. For the same compound, the Spleen weight (Friend Leukemia Virus [2]; [4]) was 1.7816 and 1.6664, the “% Inhibition” value (Friend Leukemia Virus [2]; [5]) was 46% and the Average Spleen Weight (Friend Leukemia Virus [2]; [5]) was 1.2358. For the same compound, the Spleen weight (Friend Leukemia Virus [2]; [5]) was 1.5771 and 0.8945.
For `Brc1cc2ccc3ccc4ccccc4c3c2c2c1ccc1ccccc12` [Compound 9, 3-Bromophenanthro(3,4-C)Phenanthrene], the “Average Spleen Weight” value (Friend Leukemia Virus [1]; [3]) was 0.8756, the “inhibition of FV-induced splenomegaly / anti-retroviral activity” value (Friend Leukemia Virus [1]) was “weak anti-retroviral activity” and the “% Inhibition” value (Friend Leukemia Virus [2]; [4]) was 3%. The Average Spleen Weight (Friend Leukemia Virus [2]; [4]) was 2.1074, the Spleen weight (Friend Leukemia Virus [2]; [4]) was 2.0831 and 2.1317 and the “% Inhibition” value (Friend Leukemia Virus [2]; [5]) was 24%. For the same compound, the Average Spleen Weight (Friend Leukemia Virus [2]; [5]) was 1.681 and the Spleen weight (Friend Leukemia Virus [2]; [5]) was 1.6262 and 1.7363.
`O=C1C(c2ccccc2)=C(c2ccccc2)C(c2ccccc2)=C1c1ccccc1` [Compound 24, Tetraphenylcyclo pentadienone] gave an inhibition in vivo at 0.1 mg (Friend Leukemia Virus [1]; dose 2 × 100 (micrograms) i.p., Table III, read-out: Average Perdosage % Inhibition) of 24%, an inhibition in vivo at 0.05 mg (Friend Leukemia Virus [1]; dose 50 (micrograms) i.p., Table III, read-out: Average Perdosage % Inhibition) of 20% and an inhibition in vivo at 0.1 mg (Friend Leukemia Virus [1]; dose 100 (micrograms) i.p., Table III, read-out: Average Perdosage % Inhibition) of 14%. The inhibition in vivo at 0.2 mg (Friend Leukemia Virus [1]; dose 200 (micrograms) i.p., Table III, read-out: Average Perdosage % Inhibition) was 6%, the “Average Spleen Weight” value (Friend Leukemia Virus [1]; [6]) was 1.2437 and the “Average Spleen Weight” value (Friend Leukemia Virus [1]; [7]) was 1.2959. The “Average Spleen Weight” value (Friend Leukemia Virus [1]; [8]) was 1.3940, the “Average Spleen Weight” value (Friend Leukemia Virus [1]; [9]) was 1.5070 and the “Pooled Average % Inhibition” value (Friend Leukemia Virus [1]; Table III) was 16%.
With `Cc1cc2ccc3ccc4ccccc4c3c2c2c1ccc1ccccc12` [Compound 11, 3-Methylphenanthro(3,4-C)Phenanthrene] the “Average Spleen Weight” value (Friend Leukemia Virus [1]; [3]) was 0.4235 and the inhibition in vivo at 0.1 mg (Friend Leukemia Virus [1]; 24 h, read-out: Average % Inhibition, 100 micrograms i.p. once, 24 h after FV, Table II) was 50.5%.
For `c1ccc(-c2c3ccccc3c(-c3ccccc3)c3ccccc23)cc1` [Compound 22, 9,10-Diphenylanthracene], the inhibition in vivo at 0.1 mg (Friend Leukemia Virus [1]; read-out: Average Perdosage % Inhibition, dose 2 × 100 (micrograms) i.p., Table III) was 13%, the inhibition in vivo at 0.05 mg (Friend Leukemia Virus [1]; read-out: Average Perdosage % Inhibition, dose 50 (micrograms) i.p., Table III) was 41% and the inhibition in vivo at 0.1 mg (Friend Leukemia Virus [1]; read-out: Average Perdosage % Inhibition, dose 100 (micrograms) i.p., Table III) was 5%. The inhibition in vivo at 0.2 mg (Friend Leukemia Virus [1]; read-out: Average Perdosage % Inhibition, dose 200 (micrograms) i.p., Table III) was 0%, the “Average Spleen Weight” value (Friend Leukemia Virus [1]; [6]) was 1.4120 and the “Average Spleen Weight” value (Friend Leukemia Virus [1]; [7]) was 0.9936. For the same compound, the “Average Spleen Weight” value (Friend Leukemia Virus [1]; [8]) was 1.5171, the “Average Spleen Weight” value (Friend Leukemia Virus [1]; [9]) was 1.5913 and the “Pooled Average % Inhibition” value (Friend Leukemia Virus [1]; Table III) was 15%.
For Phenylanthracene [Compound 18], the “Actual Spleen Weight” value (Friend Leukemia Virus [1]; dose 2 × 100 (micrograms) i.p., second dose 24-48 hours later, Table III) was 1.4116 and 1.0222, the “Average Perdosage % Inhibition” value (Friend Leukemia Virus [1]; [6]) was 26% and the “Average Spleen Weight” value (Friend Leukemia Virus [1]; [6]) was 1.2169. The “Average Perdosage % Inhibition” value (Friend Leukemia Virus [1]; [7]) was 28%, the “Average Spleen Weight” value (Friend Leukemia Virus [1]; [7]) was 1.1803 and the “Actual Spleen Weight” value (Friend Leukemia Virus [1]; [7]) was 1.1141 and 1.2464. The “Average Perdosage % Inhibition” value (Friend Leukemia Virus [1]; [8]) was 3%, the “Average Spleen Weight” value (Friend Leukemia Virus [1]; [8]) was 1.554 and the “Actual Spleen Weight” value (Friend Leukemia Virus [1]; [8]) was 1.6206 and 1.4902. The “Average Perdosage % Inhibition” value (Friend Leukemia Virus [1]; [9]) was 18%, the “Average Spleen Weight” value (Friend Leukemia Virus [1]; [9]) was 1.3296 and the “Actual Spleen Weight” value (Friend Leukemia Virus [1]; [9]) was 1.3797 and 1.2794. The “Pooled Average % Inhibition” value (Friend Leukemia Virus [1]; Table III) was 19%.
`c1ccc2c(c1)C1c3ccccc3C2c2ccccc21` [Compound 7, Triptycene] was tested, and the “Average Spleen Weight” value (Friend Leukemia Virus [1]; [3]) was 0.4655, the “inhibition of FV-induced splenomegaly / anti-retroviral activity” value (Friend Leukemia Virus [1]) was “significantly inhibited FV-induced splenomegaly” and the inhibition in vivo at 0.1 mg (Friend Leukemia Virus [1]; 24 h, 100 micrograms i.p. once, 24 h after FV, Table II, read-out: Average % Inhibition) was 45.6%.
